Data on 10 compounds can be found in patent US20120231042A1, “Pharmaceutical Formulation For Producing Rapidly Disintegrating Tablets” (BASF SE, priority 2011, published 2012).

The series can be described thus: Film formation test. The series is classed as physicochemical. The note with it: assessed visually; for Clear film / Notes (film-forming classification): 15% by weight solution in water, dried at 45° C. for 4 hours; for Structure formed after drying (film-forming property): 15% solution dried 4 hours at 45° C., statement in description. The procedure: In various embodiments, to determine the film-forming property, 30.0 g of a 15% strength by weight solution of the sugar or sugar alcohol in water are first prepared at 23° C. This solution is poured out onto glass plates with an indentation (dimension: 20 cm×6.5 cm, indentation 0.3 cm) and dried for 4 hours at 45° C. and then assessed visually. Measurement can take place in ambient air. The ambient air here has a relative humidity of about 40% at 23° C. Drying can take place for example, on the heating plate of a film-drawing instrument. A suitable film-drawing instrument is for example a commercial instrument such as the COATMASTER 509 MC.
Products which are present after the drying operation as a clear film or covering are referred to as “film-forming” If crystals are visible and the mass appears powdery, the substances are classified as “non-film-forming”
To determine the film-forming property, firstly, at 23° C., 30.0 g of a 15% strength by weight solution of the sugar or sugar alcohol in water were prepared. This solution was poured onto glass plates with an indentation (dimension: 20 cm×6.5 cm, indentation 0.3 cm) and dried at 45° C. for 4 hours and then assessed visually. […] Drying was carried out on a heating plate of the film-drawing instrument COATMASTER 509 MC (Erichsen).

On to Palatinit, for which the Clear film result is on record as “Yes”, the “Notes (film-forming classification)” value is given as “Film-forming” and the “Structure formed after drying (film-forming property)” value (“Structure formed after drying” for short) is “clear film/covering”.
Taken in the same sequence, the figures for `OC[C@@H](O)[C@H](O)[C@@H](O)CO` [Xylitol] were “No”, “Crystals; non-film-forming” and “crystals or a powdery structure”.
Regarding `OC[C@@H](O)[C@@H](O)[C@H](O)[C@@H](O)CO` [Sorbitol], the Clear film entry is given as “Yes”, the “Notes (film-forming classification)” value is “Film-forming” and the “Structure formed after drying” value is “clear film/covering”.
For `OC[C@H]1O[C@@H](O[C@H]2[C@H](O)[C@@H](O)C(O)O[C@@H]2CO)[C@H](O)[C@@H](O)[C@H]1O` (stereo partly drawn) [lactose], the “Structure formed after drying” value was “clear film/covering”.
In the case of `OC[C@H]1O[C@@](CO)(O[C@H]2O[C@H](CO)[C@@H](O)[C@H](O)[C@H]2O)[C@@H](O)[C@@H]1O` [sucrose], the “Structure formed after drying” value is recorded as “clear film/covering”.
Consider `OC[C@H]1O[C@H](O[C@H]2O[C@H](CO)[C@@H](O)[C@H](O)[C@H]2O)[C@H](O)[C@@H](O)[C@@H]1O` [trehalose], for which the “Structure formed after drying” value is on record as “clear film/covering”.
For the compound `OC[C@@H](O)[C@@H](O)[C@H](O)[C@H](O)CO` [Mannitol], the Clear film result was “No”, the “Notes (film-forming classification)” value is “Crystals; non-film-forming” and the “Structure formed after drying” value is given as “crystals or a powdery structure”.
As for `OC[C@@H](O)[C@@H](O[C@@H]1O[C@H](CO)[C@H](O)[C@H](O)[C@H]1O)[C@H](O)[C@@H](O)CO` [Lactitol], the Clear film entry was “Yes”, the “Notes (film-forming classification)” value is given as “Film-forming” and the “Structure formed after drying” value is listed as “clear film/covering”.
For the compound `OC[C@@H](O)[C@@H](O[C@H]1O[C@H](CO)[C@@H](O)[C@H](O)[C@H]1O)[C@H](O)[C@@H](O)CO` [Maltitol], the Clear film result is listed as “Yes”, the “Notes (film-forming classification)” value is “Film-forming” and the “Structure formed after drying” value is “clear film/covering”.
On to `OC[C@@H](O)[C@@H](O)CO` [Erythritol], for which the Clear film result was “No”, the “Notes (film-forming classification)” value is “Crystals; non-film-forming” and the “Structure formed after drying” value was “crystals or a powdery structure”.
